Assay [1] addresses T1, Quinolone resistance protein NorA (Staphylococcus aureus) (UniProt P0A0J7).
T1 sequence (whole entry): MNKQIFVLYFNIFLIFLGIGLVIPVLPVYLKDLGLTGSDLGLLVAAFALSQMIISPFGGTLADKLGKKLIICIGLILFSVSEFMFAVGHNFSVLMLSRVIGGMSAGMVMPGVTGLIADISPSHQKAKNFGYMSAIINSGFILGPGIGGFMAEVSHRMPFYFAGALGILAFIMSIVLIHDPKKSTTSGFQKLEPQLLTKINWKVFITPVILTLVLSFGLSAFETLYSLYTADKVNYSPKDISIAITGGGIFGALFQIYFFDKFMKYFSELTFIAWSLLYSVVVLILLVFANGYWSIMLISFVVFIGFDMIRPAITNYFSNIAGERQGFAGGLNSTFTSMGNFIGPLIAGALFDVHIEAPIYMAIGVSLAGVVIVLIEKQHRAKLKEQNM
Particulars: 1199B.
Description: Inhibition of Staphylococcus aureus 1199B norA efflux pump by spectrophotometry

Assay [2] relates to Staphylococcus aureus. Briefly: microbe, parasite or virus in culture. As to conditions: 1199B, 24 h.
Description: Antimicrobial activity against Staphylococcus aureus 1199B after 24 hrs
Assay [3] has as its system Staphylococcus aureus. As to the kind of experiment: microbe, parasite or virus in culture. As to conditions: Staphylococcus aureus, 1199, 24 h.
Description: Antimicrobial activity against Staphylococcus aureus 1199 after 24 hrs

Values after ≈ are worked out from the molar mass of the structure shown.

MEC and MIC data for two compounds are collected here from ChEMBL document CHEMBL1240453, “Substituted dihydronaphthalenes as efflux pump inhibitors of Staphylococcus aureus” (2010).

`COC(=O)[C@H]1[C@H]2C[C@@H]3c4[nH]c5cc(OC)ccc5c4CCN3C[C@H]2C[C@@H](OC(=O)c2cc(OC)c(OC)c(OC)c2)[C@@H]1OC` returned an MEC in assay [1] of 25 µg/mL. As for `O=C(O)c1cn(C2CC2)c2cc(N3CCNCC3)c(F)cc2c1=O` [CIPROFLOXACIN], the MIC stood at 8 µg/mL (≈ 24.1 µM) in assay [2] and 0.25 µg/mL (≈ 0.754 µM) in assay [3].
